Columns and labels:
[1] = Substrate (ligand) specificity of […]s; type: biochemical; conditions: for AVE of Repeat 1-3, sensor signal with ligand (Supplementary Fig. 7 c): 1 mM ligand, Control AVE 12117.3; for fluorescence response of GECFINDER to each substrate, AVE of 3 repeats: Supplementary Fig. 3 c, substrate specificity
Method: Fig. 4 Engineering ligand specificity of GrsA-PheA for generating […]s. a The selectivity-conferring code of Phe and Leu A domains. b–f Dose–response curve of purified […]s with increasing concentrations of ligands in 100 mM Tris-HCl buffer (pH=7.5). All data shown are means ± S.D. (n = 3 biologically independent samples). g A series of […] reactions was tested to show the […]’s specificity with 20 proteinogenic amino acids. The values on the heatmap represent the ΔF/F0 value normalized to each […]’s maximal ΔF/F0 value ((ΔF/F0)/maximal ΔF/F0). The concentrations of 20 amino acids were 100 μM. The color indicates the average value of three independent biological replicates after 15 min. All data shown are means ± S.D. (n = 3 biologically independent samples). Source data are provided as a Source data file.
Ligand specificity is an important biosensors feature. Generally, the NRPS A domains have high specificity for their substrates because they are the first “gatekeeper” of NRPSs and ensure that the correct monomers are activated and thioesterified[32],[33]. Therefore, we speculated that this property would be inherited by our […]s because the ligand-binding pockets were unchanged during the […] creation process. Twenty proteinogenic amino acids were used to test the ligand specificity of […]s. […] We also investigated the dependence of […]s on Mg^2+ and ATP (Supplementary Fig. 4). […] This phenomenon corroborates with the distinct conformational changes observed in Hinge A of Nt4CL2 (Mg^2++ATP) (PDB ID: 5BSM) and Nt4CL2 (Coumaroyl-AMP) (PDB ID: 5BST) reported in the literature (Supplementary Fig. 4k), where the direction of motion in hinge A differs. […] During the determination of quantum yield, we observed that the absolute quantum yield of the […] variants ranged from 0.3 to 0.6 upon addition of the respective substrates, which show no significant difference with that reported in literature. The specific values are provided in Supplementary Table 2.
The study conducted dose–response curve, substrate specificity, and fluorescent spectrum analyses in 100-mM Tris buffer (pH = 7.5), while pH stability experiments were performed in 100-mM Tris buffer at three different pH values (6.5, 7.5, and 8.5) at room temperature. […] protein at a concentration of 0.75 μM, various small molecule concentrations, 1 mM ATP, and 2.5 mM MgCl2 were used in the experiments. Fluorescent signals were detected using a Microplate Reader (Synergy H4, Bio Tek) at an excitation/emission wavelength of 460 nm/510 nm or 480 nm/510 nm. The dose-response curve was determined immediately after the addition of the analyte. The total duration of the measurement was 15 min, with readings taken at one-minute intervals. The dose-response curve was plotted using the fluorescence values obtained after achieving stability in the fluorescence signal. The dose-response curves were fitted using the logistic model LOGISTIC5 available in Origin 2021, which could provide a more adequate fit to asymmetric dose-response data[62],[63]. Excitation spectra were scanned from 300 to 540 nm with a step size of 5 nm, and the emission wavelength was set to 560 nm. Emission spectra were scanned from 470 to 700 nm with a step size of 5 nm, and the excitation wavelength was set to 450 nm. The thermal stability of […] was analyzed using the UNcle multifunctional protein stability analysis system. Measurements were performed in 20 mM MOPS buffer with 2 mM DTT at a sample concentration of 1 mg/mL. Absolute fluorescence quantum yields were measured using an absolute photoluminescence quantum yield spectrometer (FS5, Edinburgh).

[2] = Dependence of […]s on Mg2+ and ATP (fluorescence intensity); type: biochemical; conditions: Mg+ +
From the text: Ligand specificity is an important biosensors feature. Generally, the NRPS A domains have high specificity for their substrates because they are the first “gatekeeper” of NRPSs and ensure that the correct monomers are activated and thioesterified[32],[33]. […] Twenty proteinogenic amino acids were used to test the ligand specificity of […]s. […] We also investigated the dependence of […]s on Mg^2+ and ATP (Supplementary Fig. 4).
Supplementary Fig. 4 Dependence of GEC FINDER s on Mg2+ and ATP . a-j, Fluore scence intensities of
GECF IN DERs in the absence of any substra te, in the pre sence of Mg2+ alone, ATP alone, both Mg2+ and ATP, Mg2+
and ATP with re spective substra tes. Mg2+ concentra tion was 2.5 mM, and ATP concentra tion was 1 mM. a, 100 μM
data are provided as a Source Data file.

**Q.** What does the source list for `CSCC[C@H](N)C(=O)O` [Met]?
**A.** AVE of Repeat 1-3, sensor signal with ligand (Supplementary Fig. 7 c) [1]: 12345.3; fluorescence response of GECFINDER to each substrate, AVE of 3 repeats [1]: 0.1232

**Q.** For `N[C@@H](CS)C(=O)O` [Cys], which “fluorescence response of GECFINDER to each substrate, AVE of 3 repeats” value (from here on “fluorescence response of GECFINDER”) [1] is on record?
**A.** -0.0008412

**Q.** With `N[C@@H](Cc1c[nH]cn1)C(=O)O` [histidine] as the compound, how does the “fluorescence intensity, AVE of 3 repeats” value ([2]; Supplementary Fig. 4 f, ATP +, histidine +) read?
**A.** 33756

**Q.** For `NCCCC[C@H](N)C(=O)O` [Lys], which “fluorescence response of GECFINDER” value [1] is on record?
**A.** -0.005837

**Q.** For `C[C@@H](O)[C@H](N)C(=O)O` [Thr], which “fluorescence response of GECFINDER” value [1] is on record?
**A.** -0.00888

**Q.** For `N[C@@H](Cc1ccccc1)C(=O)O` [phenylalanine], which “fluorescence intensity, AVE of 3 repeats” value ([2]; Supplementary Fig. 4 b, ATP +, phenylalanine +) is on record?
**A.** 39284.7

**Q.** What about the “fluorescence intensity, AVE of 3 repeats” value ([2]; Supplementary Fig. 4 j, ATP +, phenylalanine +) of the same compound?
**A.** 31788

**Q.** For `C[C@H](N)C(=O)O` [Ala], which “fluorescence response of GECFINDER” value [1] is on record?
**A.** 0.02842

**Q.** With `CC(C)[C@H](N)C(=O)O` [Val] as the compound, how does the “fluorescence response of GECFINDER” value [1] read?
**A.** -0.02124

**Q.** Which “fluorescence intensity, AVE of 3 repeats” value ([2]; Supplementary Fig. 4 d, ATP +, proline +) does the source give for `O=C(O)[C@@H]1CCCN1` [proline] here?
**A.** 54621.3

**Q.** What does the source list for `N[C@@H](Cc1c[nH]c2ccccc12)C(=O)O` [Trp]?
**A.** AVE of Repeat 1-3, sensor signal with ligand (Supplementary Fig. 7 c) [1]: 11938.7; fluorescence response of GECFINDER to each substrate, AVE of 3 repeats [1]: -0.01712

**Q.** Which “fluorescence intensity, AVE of 3 repeats” value ([2]; Supplementary Fig. 4 e, ATP +, isoleucine +) does the source give for `CC[C@H](C)[C@H](N)C(=O)O` [isoleucine] here?
**A.** 15546

**Q.** Which “fluorescence response of GECFINDER” value [1] does the source give for `NC(=O)CC[C@H](N)C(=O)O` [Gln] here?
**A.** 0.009843

**Q.** With `N[C@@H](CC(=O)O)c1ccccc1` [S-β-phenylalanine] as the compound, how does the “fluorescence intensity, AVE of 3 repeats” value ([2]; Supplementary Fig. 4 h, ATP +, S-β-phenylalanine +) read?
**A.** 22066

**Q.** With `[Mg+2]` [Mg+] as the compound, how does the “fluorescence intensity, AVE of 3 repeats” value ([2]; Supplementary Fig. 4 a, ATP -, 4-coumaric acid -) read?
**A.** 2849

**Q.** And the “fluorescence intensity, AVE of 3 repeats” value ([2]; Supplementary Fig. 4 b, ATP -, phenylalanine -)?
**A.** 6591

**Q.** And the “fluorescence intensity, AVE of 3 repeats” value ([2]; Supplementary Fig. 4 c, ATP -, glutamine -)?
**A.** 17660

**Q.** What about the “fluorescence intensity, AVE of 3 repeats” value ([2]; Supplementary Fig. 4 e, ATP -, isoleucine -) of the same compound?
**A.** 12580

**Q.** What about the “fluorescence intensity, AVE of 3 repeats” value ([2]; Supplementary Fig. 4 f, ATP -, histidine -) of the same compound?
**A.** 26018

**Q.** And the “fluorescence intensity, AVE of 3 repeats” value ([2]; Supplementary Fig. 4 g, ATP -, leucine -)?
**A.** 6350.33

**Q.** What about the “fluorescence intensity, AVE of 3 repeats” value ([2]; Supplementary Fig. 4 i, ATP -, tyrosine -) of the same compound?
**A.** 5977

**Q.** And the “fluorescence intensity, AVE of 3 repeats” value ([2]; Supplementary Fig. 4 j, ATP -, phenylalanine -)?
**A.** 7671.67

**Q.** What about the “fluorescence intensity, AVE of 3 repeats” value ([2]; Supplementary Fig. 4 h, ATP -, S-β-phenylalanine -) of the same compound?
**A.** 5046.33

**Q.** And the “fluorescence intensity, AVE of 3 repeats” value ([2]; Supplementary Fig. 4 d, ATP -, proline -)?
**A.** 43559.3

**Q.** For `N=C(N)NCCC[C@H](N)C(=O)O` [Arg], which “fluorescence response of GECFINDER” value [1] is on record?
**A.** 0.01953

**Q.** Which “fluorescence response of GECFINDER” value [1] does the source give for `NCC(=O)O` [Gly] here?
**A.** 0.007359

**Q.** With `N[C@@H](Cc1ccc(O)cc1)C(=O)O` [tyrosine] as the compound, how does the “fluorescence intensity, AVE of 3 repeats” value ([2]; Supplementary Fig. 4 i, ATP +, tyrosine +) read?
**A.** 9237.33

**Q.** With `NC(=O)C[C@H](N)C(=O)O` [Asn] as the compound, how does the “fluorescence response of GECFINDER” value [1] read?
**A.** 0.01237

**Q.** For `N[C@@H](CC(=O)O)C(=O)O` [Asp], which “fluorescence response of GECFINDER” value [1] is on record?
**A.** 0.02069

**Q.** Which “fluorescence response of GECFINDER” value [1] does the source give for `N[C@@H](CO)C(=O)O` [Ser] here?
**A.** -0.004319

— article PMC10590383, “Repurposing conformational changes in ANL superfamily enzymes to rapidly generate biosensors for organic and amino acids” (Nature Communications, 2023)
